Assay results from patent US5677296A, “Carbamic acid derivatives of substituted dibenzoxazepine compounds, pharmaceutical compositions and methods of use” (G.D. Searle & Co., priority 1995, dated 1997).

Legend:
[1] = system: prostaglandin E2-induced contractions of guinea pig ileum; assay: Prostaglandin (PGE) Antagonism Assay (inhibition of prostaglandin E2-induced contractions of segments of guinea pig ileum); conditions: for PGE2 antagonism in guinea pig ileum: Dose Ratio at 3 × 10^-6 M: test compound 3 × 10^-6 M, 30 min incubation, dose ratio of PGE2 EC50 values, average where more than one determined
Method: (b) Prostaglandin (PGE) Antagonism Assay
In order to determine the effectiveness of several of the compounds of the present invention ("test compounds") as prostaglandin E2 antagonists,a prostaglandin antagonism assay was conducted, as described below, to determine the ability of these compounds to inhibit prostaglandin E2 -induced contractions of segments of guinea pig ileum.
Male albino guinea pigs weighing 200 to 500 grams were sacrificed by cervical dislocation. The ilea were then quickly removed from the guinea pigs and placed in a modified Tyrode solution, a solution which is known to those skilled in the art, containing one-half of the usual amount of magnesium ions.
Segments of ileum about 2 cm long were then cut and mounted in a 10 mL tissue bath containing the modified Tyrode solution. The solution was maintained at 37° C. and aerated with a gaseous mixture of 95% oxygen and 5% carbon dioxide. Data for a control prostaglandin E2 dose response curve plotting concentration of prostaglandin E2 versus the intensity of contractions, detected isotonically, was then obtained by experimentally adjusting the dose of the prostaglandin E2 being injected into the tissue bath, in a manner known by those of skill in the art.
Solutions or suspensions containing an initial concentration (3 micromolar) of a test compound in modified Tyrode solution ("test solutions/suspensions") were then separately substituted for the control bath solution. Each test solution/suspension was then kept in constant contact with the ileum tissue, except for brief periods to drain the bath in preparation for rinsing with fresh test solution/suspension. A second prostaglandin E2 dose response curve was then generated for prostaglandin E2 in the presence of a test compound.
A control dose response curve is produced in isolated segments of guinea pig ileum mounted in an automated apparatus with six concentrations of prostaglandin E2. A solution or suspension of test compound is substituted for the control bathing solution and is incubated for thirty minutes. An additional prostaglandin E2 dose response curve is then performed in the presence of the test compound. A dose ratio is calculated from the EC50 values obtained from duplicate replications on each concentration of the test compound.
A dose ratio of EC50 doses was calculated from the results of each test in a manner known by those of skill in the art, and described above.
The dose ratios reported in Table 1 represent an average of multiple dose ratios for those compounds for which more than one dose ratio was determined. The compounds of the present invention which were tested in this assay, and for which results are presented in Table 1, correspond to the particular examples specified in Table 1.
The pA2 value (a statistical constant which is a common measure of expressing the potency of a particular drug as a competitive antagonist), rather than the dose ratio, was calculated for the test compound shown and described in Example 6 by schild plot calculations, as described by H. O. Schild, "pA, A New Scale for the Measurement of Drug Antagonism," Br. J. Pharmacol, 2, 189 (1947), and is reported in Table 1.

[2] = system: phenylbenzoquinone (PBQ)-induced writhing in mice; assay: Writhing Assay (PBQ-induced writhing in mice, analgesic activity); assay type: in vivo, mouse (Charles River male albino mice); conditions: i.g.; for Writhing assay: number of mice out of eight or ten in which test compound produced analgesia: 30 mpk, 30 min before PBQ i.p., fraction of mice
Description: The Writhing Assay is one of the most widely-used experimental procedures for measuring the analgesic activity of different narcotic and nonnarcotic analgesic agents, and involves the continuous, chemically-induced pain of visceral origin to an animal, such as a mouse or rat. [Gyires et al., Arch. int. Pharmacodyn, 267, 131-140 (1984); C. Vander Wende et al., Fed. Proc., 15, 494 (1956); Koster et al., Fed. Proc., 18, 412 (1959); and Witken et al., J. Pharmacol. exp. Ther., 133, 400-408 (1961).] Chemicals which may be used to induce this pain include phenylbenzoquinone (PBQ) and acetic acid. As a result of the chemical irritation to the animal, a characteristic stretching and writhing of the animal (dorsiflexion of the animal's back, extension of its hindlimbs and the strong contraction of its abdominal musculature) will generally occur. […] Drugs which reduce the number of writhes of the animal appear to restore the normal nociceptive threshold of the animal.
Charles River male albino mice, weighing 20 to 30 grams, were used in this assay.
Thirty minutes after intragastric administration to ten mice of 30 mg per kilogram of body weight of a compound of the present invention ("test compound"), […] per 10 g of body weight of a 0.025% w/v solution of PBQ was injected intraperitoneally into each mouse. Ten mice which were given saline in place of a test compound of the invention were used as a control group.
Five minutes later, each mouse was individually placed into a glass beaker for observation, and the number of writhes occurring during the following ten-minute period was counted.
A test compound was considered to have produced analgesia in a mouse if, in accordance with the conditions set forth above, and under the test criteria employed for this assay, after the administration of 30 mg per kilogram of body weight of a compound of the present invention to the mouse, the number of writhes elicited by a mouse injected with PBQ was equal to, or less than, one-half the median number of writhes recorded for the saline-treated control group of mice that day, as described by Taber in "Predictive Value of Analgesic Assays in Mice and Rats," Advances in Biochemical Psychopharmacology, 8, 191 (1974).
The results for the particular compounds of the present invention analyzed in this assay, and discussed in the examples identified below which correspond thereto, are presented in Table 1 hereinbelow as fractions under the heading "WRITHING ASSAY." The fractions indicate the number of mice out of eight or ten in which a test compound produced analgesia.
The standard initial screening dose of a test compound employed in this assay was 30 mpk […]. Generally, if this initial screening dose of the test compound produced analgesia in seven out of ten mice, then the effect of additional doses of the test compound on the writhing response was evaluated, and then the ED50 dose was generally calculated. (The slopes of the dose-response curves for all test compounds analyzed were compared as described by Tallarida and Murray, Manual of Pharmacologic Calculations, Page 11 (Springer Verlag, New York, 1981)).
All ED50 doses calculated are also presented in Table 1 hereinbelow under the heading "WRITHING ASSAY," but as whole numbers.

Row | SMILES | PGE2 antagonism in guinea pig ileum: Dose Ratio at 3 × 10^-6 M [1] | Writhing assay: number of mice out of eight or ten in which test compound produced analgesia [2] | also measured
1 | O=C1N2CCc3ccccc3C2C2c3ccccc3Oc3ccc(Cl)cc3N12 (stereo not drawn) [Compound 29, 12-Chloro-17,18-dihydro-15H-benz[b]isoquino[2',1';3,4]-imidazo[1,5-d][1,4]benzoxazepin-15-one] | 3.8 |  | 
2 | O=C1OC(c2ccccc2)C2c3ccccc3Oc3ccc(Cl)cc3N12 (single isomer, unassigned) [Compound 3, 6-chloro-1,13b-dihydro-1-phenyl-3H-dibenz[b,f]oxazolo-[3,4-d][1,4]oxazepin-3-one] | 43.6 | 3/10 | 
3 | O=C1OC2(CCC2)C2c3ccccc3Oc3ccc(Cl)cc3N12 (stereo not drawn) [Compound 21, 6-Chloro-1,13b-dihydro-3H-spiro[dibenz[b,f]oxazolo-[3,4-d][1,4]oxazepin-1,1'-cyclobutan]-3-one] | 0.9 |  | 
4 | O=C1OC(c2ccccc2)C2c3ccccc3Oc3ccc(Cl)cc3N12 (single isomer, unassigned) [Compound 4, 6-chloro-1,13b-dihydro-1-phenyl-3H-dibenz[b,f]oxazolo-[3,4-d][1,4]oxazepin-3-one] | 0.87 | 3/10 | 
5 | O=C1OC(c2ccncc2)c2c(Cl)ccc3c2N1Cc1ccccc1O3 (stereo not drawn) [Compound 5, 4-chloro-3-(4-pyridyl)-1H,3H,12H-[3,1]-benzoxazino-[8,1-b,c][1,4]benzoxazepin-1-one] | 10.93 | 10/10 | ED50 ([2]; Mus musculus, PBQ i.p., read-out: Writhing assay: ED50 Dose (I.G.)): 3.7 mg/kg
6 | O=C1N2C=Cc3ccccc3C2C2c3ccccc3Oc3ccc(Cl)cc3N12 (single isomer, unassigned) [Compound 28, 12-Chloro-15H-benz[b]isoquino[2',1':3,4]imidazo-1,5-d][benzoxazepin-15-one] | 3.5 |  | 
7 | O=C1OC(c2ccccn2)C2c3ccccc3Oc3ccc(Cl)cc3N12 (stereo not drawn) [Compound 10, 6-chloro-1,13b-dihydro-1-(2-pyridyl)-3H-dibenz-[b,f]oxazolo[3,4-d][1,4]oxazepin-3-one] | 28.94 | 1/10 | 
8 | O=C1OC(c2ccccc2)c2c(Cl)ccc3c2N1Cc1ccccc1O3 (stereo not drawn) [Compound 2, 4-chloro-3-phenyl-1H,3H,12H-[3,1]-benzoxazino[8,1-b,c][1,4]benzoxazepin-1-one] | 29.2 | 1/10 | 
9 | O=C1OC2(CCCC2)C2c3ccccc3Oc3ccc(Cl)cc3N12 (stereo not drawn) [Compound 22, 6-chloro-1,13H-spiro[dibenz[b,f]-oxazolo3,4-d][1,4]oxazepin-1,1'-cyclopentane-3-one] | 2.5 |  | 
10 | O=C1O[C@@H](c2ccncc2)[C@@H]2c3ccccc3Oc3ccc(Cl)cc3N12 (relative stereo) [Compound 6, trans-6-chloro-1,13b-dihydro-1-(4-pyridyl)-3H-dibenz-[b,f]oxazolo[3,4-d][1,4]oxazepin-3-one] |  | 5/10 | PGE2 antagonism in guinea pig ileum: PA2 Value ([1]; Schild plot): 7.15
11 | O=C1OC(c2ccco2)c2c(Cl)ccc3c2N1Cc1ccccc1O3 (stereo not drawn) [Compound 13, 4-chloro-3-(-2-furyl)-1H,3H,12H-[3,1]-benzoxazino-[8,1-b,c][1,4]benzoxazepin-1-one] | 4.4 |  | 
12 | O=C1C2c3ccccc3Oc3ccc(Cl)cc3N2C(=O)N1Cc1ccccc1 (stereo not drawn) [Compound 34, 6-Chloro-2-phenylmethyl-2H,13bH-dibenz[b,f]-imidazo-[1,5-d][1,4]oxazepin-1,3-dione] | 3.6 |  | 
13 | O=c1[nH]c(-c2ccccc2)c2n1-c1cc(Cl)ccc1Oc1ccccc1-2 [Compound 30, 6-Chloro-1-phenyl-2H-dibenz[b,f]imidazo[1,5-d]-[1,4]oxazepin-3-one] | 2.1 |  | 
14 | Cn1c(-c2ccccc2)c2n(c1=O)-c1cc(Cl)ccc1Oc1ccccc1-2 [Compound 31] | 1.4 |  | 
15 | COC(=O)c1ccc([C@@H]2OC(=O)N3c4cc(Cl)ccc4Oc4ccccc4[C@@H]23)cc1 (relative stereo) [Compound 17, 6-chloro-1,13b-dihydro-1-(4-carboxymethylphenyl)-3H-dibenz[b,f]-oxazolo[3,4-d][1,4]-oxazepin-3-one] | 2.3 |  | 
16 | O=C1OC(c2cccnc2)c2c(Cl)ccc3c2N1Cc1ccccc1O3 (stereo not drawn) [Compound 8, 4-chloro-3-(3-pyridyl)-1H,3H,12H-[3,1]-benzoxazino-[8,1-b,c][1,4]benzoxazepin-1-one] |  | 5/10 | 
17 | O=C1OC(c2cccnc2)C2c3ccccc3Oc3ccc(Cl)cc3N12 (mixture of isomers) [Compounds 9a and 9b (Mixture), 6-chloro-1,13b-dihydro-1-(3-pyridyl)-3H-dibenz[b,f]-oxazolo[3,4-d][1,4]oxazepin-3-one] | 1.5 |  | 
18 | O=C1C2c3ccccc3Oc3ccc(Cl)cc3N2C(=O)N1c1ccccc1 (stereo not drawn) [Compound 33, 6-Chloro-2-phenyl-2,13bH-dibenz[b,f]imidazo-[1,5-d][1,4]oxazepin-1,3-dione] | 4.3 |  | 
19 | O=C(O)Cc1ccc(C2OC(=O)N3c4cc(Cl)ccc4Oc4ccccc4C23)cc1 (stereo not drawn) [Compound 16, 6-chloro-1,13b-dihydro-1-(-4-carboxymethlyphenyl)-3H-dibenz[b,f]-oxazolo-[3,4-d][1,4]oxazepin-3-one] | 2.4 |  | 
20 | O=C1OC(c2ccsc2)C2c3ccccc3Oc3ccc(Cl)cc3N12 (stereo not drawn) [Compound 12, 6-chloro-1,13b-dihydro-1-(3-thienyl)-3H-dibenz[b,f]oxazolo[3,4-d][1,4]-oxazepin-3-one] | 1.9 |  | 
